Reference: publication PMC8158254, “Anion inhibition studies of the α-carbonic anhydrases from Neisseria gonorrhoeae” (Journal of Enzyme Inhibition and Medicinal Chemistry, 2021)
Where two headings read alike, the source gives them in different places.

Biological target: T1, NgCA (Neisseria gonorrhoeae, UniProt Q50940)
T1 construct: gene cah
T1 sequence (Q50940 27-252): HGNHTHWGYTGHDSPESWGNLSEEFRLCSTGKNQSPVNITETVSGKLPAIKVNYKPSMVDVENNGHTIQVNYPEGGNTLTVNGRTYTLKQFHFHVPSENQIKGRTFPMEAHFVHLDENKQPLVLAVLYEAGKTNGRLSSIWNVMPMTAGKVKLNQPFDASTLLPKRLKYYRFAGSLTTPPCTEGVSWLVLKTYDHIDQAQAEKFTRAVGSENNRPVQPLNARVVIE
Assay: biochemical

| SMILES | Ki (read-out: NgCA) [µM] | other results |
| --- | --- | --- |
| O=S(=O)(O)F [FSO3^−] | 610 | – |
| O=[N+]([O-])O [NO3^−] | 850 | – |
| [O]=[Ru](=[O])(=[O])[OH] [RuO4^−] | 1900 | – |
| N#CS [NCS^−] | – | Ki: 920 µM |
| O=S(=O)(O)NS(=O)(=O)O [NH(SO3)2^2-] | 250 | – |
| O=S(=O)(O)O [SO4^2-] | – | Ki: 830 µM |
| N#CO [NCO^−] | 430 | – |
| S [HS^−] | 550 | – |
| NS(N)(=O)=O [NH2SO2NH2] | 58 | – |
| S=C(S)S [CS3^2-] | 88 | – |
| O=S(=O)(O)OOS(=O)(=O)O [S2O8^2-] | 790 | – |
| F[P-](F)(F)(F)(F)F [PF6^−] | – | Ki (sodium salt, CO2 substrate, 10 mM Hepes pH 7.4, 10 mM NaClO4, 15 min preincubation at room temperature, read-out: hCA I): > 100000 µM |
| [O-][Cl+3]([O-])([O-])O [ClO4^−] | > 100000 | – |
| O=[Te](=O)(O)O [TeO4^2-] | 760 | – |
| N#C[SeH] [SeCN^−] | 660 | – |
| O=NO [NO2^−] | 590 | – |
| Br [Br^−] | 4000 | – |
| O=S(=O)(O)C(F)(F)F [CF3SO3^−] | 5700 | – |
| O=[Se](=O)(O)O [SeO4^2-] | 870 | – |
| NS(=O)(=O)O [NH2SO3H] | 24 | – |
| OB(O)c1ccccc1 [PhB(OH)2] | 150 | – |
| I [I^−] | – | Ki: 9600 µM |
| [O]=[Re](=[O])(=[O])[OH] [ReO4^−] | 960 | – |
| [O]=[V]([OH])([OH])[O][V](=[O])([OH])[OH] [V2O7^2-] | 2800 | – |
| Cl [Cl^−] | 4800 | – |
| O=P(O)(O)OP(=O)(O)O [P2O7^2-] | – | Ki: 4900 µM |
| F [F^−] | 8300 | – |
| CCN(CC)C(=S)S [EtNCS2^−] | 5.1 | – |
| O=S(O)O [HSO3^−] | 660 | – |
